Target: T1, GST-PfNSMase (PfNSM product; plasmodial SM/LCPL-PLC) (Plasmodium falciparum, UniProt Q8WSF5)
T1 sequence (Q8WSF5 1-393): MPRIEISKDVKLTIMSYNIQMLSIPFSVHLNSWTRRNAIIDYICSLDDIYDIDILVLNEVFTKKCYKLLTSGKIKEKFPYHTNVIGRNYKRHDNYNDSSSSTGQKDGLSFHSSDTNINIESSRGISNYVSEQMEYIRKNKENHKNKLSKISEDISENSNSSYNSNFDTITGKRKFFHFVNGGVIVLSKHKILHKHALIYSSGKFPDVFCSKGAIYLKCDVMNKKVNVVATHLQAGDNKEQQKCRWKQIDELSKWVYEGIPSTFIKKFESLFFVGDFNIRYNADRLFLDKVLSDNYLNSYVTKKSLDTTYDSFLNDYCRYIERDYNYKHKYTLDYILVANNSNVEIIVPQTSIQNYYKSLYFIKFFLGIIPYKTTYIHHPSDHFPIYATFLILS
Experiment: competition of […]lysoPtdCho hydrolysis, E. coli membrane fraction
Type: biochemical
Settings: 10 μM [palmitoyl-1-14C]lysoPtdCho; detergent-free; 10 mM MgCl2; pH 7.5; 37°C

Structure (SMILES) | % of control activity
CCCCCCCCCCCCCCCCOC[C@@H](O)COP(=O)([O-])OCC[N+](C)(C)C [lysoPAF] | The activity was moderately competed by PAF and lysoPAF
CCCCCCCCCCCCC/C=C/[C@@H](O)[C@@H](N)COP(=O)([O-])OCC[N+](C)(C)C [sphingosylphosphocholine] | lysoPtdCho was strongly competed by sphingosylphosphocholine

From PMC2196011 (The Journal of Experimental Medicine, 2002)
